Assay results taken from patent publication US20150164871A1, “Pharmaceutical Compositions for Combination Therapy” (Acesion Pharma, priority 2012, published 2015).
Entries after “also recorded” stand apart in the source; their conditions may differ.

How the values were obtained:
[1] = system: Isolated, perfused female guinea pig hearts; assay: Dose finding: cardioversion of acetylcholine/burst-pacing induced AF in Langendorff heart; settings: for cardioversion obtained (animals converted out of animals): within 30 min, AF induced by 1 μmol/L ACh and burst pacing
Description: (§1) The isolated heart was prepared as follows. Guinea pigs weighing between 350 and 600 g were anesthetized with i.p. injection of 200 mg/kg pentobarbital. In addition, 1000 IU/kg heparin were injected i.p. Respiration was maintained by artificial ventilation(atm air) through a cannula in the trachea (volume, 12 ml/kg; rate, 60 strokes/min). Upon thoracotomy, a perfusion cannula was inserted and fixed in the aorta for retro-grade perfusion. Hearts were mounted in a vertical Langendorff set-up (Hugo Sachs-Harvard Apparatus GmbH, March-Hugstetten, Germany) and perfused with Krebs-Henseleit solution: 120.4 mM NaCl, 4.0 mM KCl, 2.5 mM CaCl2, 0.6 mM MgSO4, 15.3 mM NaHCO3, 0.6 mM NaH2PO4, and 11.5 mM glucose, pH 7.4, at constant oxygenation with O2/CO2 in a 95/5% mixture at 37° C. Four monophasic action potential (MAP) electrodes were placed on the left atrium, the right atrium, the left ventricle, and right ventricle, respectively. A pacing electrode was placed on the right atrium. The electro-cardiogram (ECG) was obtained with three ECG electrodes placed in close proximity to the heart. All data were acquired using the 16-channel PowerLab system (ADInstruments, Oxfordshire, UK). Pacing stimuli were twice the diastolic threshold and with a duration of 2 milliseconds (ms) unless otherwise stated.
Isolated, perfused female guinea pig hearts from Dunkin Hartley strain (HsdPoc:DH) continuously paced on the right atrium (300 bpm) were allowed to stabilize, and the atrial effective refractory period (aERP) was measured. AF was induced by 1 μmol/L acetylcholine (ACh) combined with burst pacing (50 Hz, 10V). When sustained (>3minutes) AF was obtained, the test compound from a stock concentration of 10 mMol/L in DMSO was added to the perfusate in a concentration of 100 nmol/L for 30 min. If no cardioversion was obtained within 30 minutes, the concentration of the compound in the perfusate was increased to 300 nmol/L. If no cardioversion was obtained within an additional time period of 30 minutes, the concentration of the compound in the perfusate was increased to 1.0 μmol/L. If no cardioversion was obtained within a further time period of 30 minutes, the concentration of the compound in the perfusate was increased to 3.0 μmol/L. If no cardioversion was obtained within an additional time period of 30 minutes, the concentration of the compound in the perfusate was increased to 10.0 μmol/L. If no cardioversion was obtained within an additional time period of 30 minutes, the concentration of the compound in the perfusate was increased to 30.0 μmol/L. Cardioversion was considered obtained if sinus rhythm was obtained within 30 minutes of one of the above mentioned drug applications, and if sustained AF could not be reinduced with burst pacing stimulation immediately after this.

[2] = system: Isolated, perfused female guinea pig hearts; assay: Effect on atrial effective refractory period (aERP) in Langendorff heart; settings: for prolongation of aERP from baseline values as compared to time matched controls (in words): administered alone, ICA 100 nmol/L, flecainide 1 μmol/L, ranolazine 3 μmol/L; for percentual prolongation of aERP after 30 minutes of perfusion as compared to the baseline: ICA 0.1 μM, flecainide 1 μM, ranolazine 3 μM, ±SEM
Description: as §1
(§2) The aERP was measured (10 basic stimuli [called S1] followed by premature S2 stimuli applied with 2-ms decrements) immediately before and at the end of the 30-minute period at pacing rates of 5 Hz and 10 Hz. After the 30 minutes of perfusion with either 100 nmol/L N-(pyridin-2-yl)-4-(pyridin-2-yl)thiazol-2-amine (ICA), 1 μmol/L flecainide, or 3 μmol/L ranolazine, or vehicle, 1 μmol/L ACh was added to the perfusate and induction of AF was attempted 40 times with burst-pacing (50 Hz) for 2 seconds or until sustained (duration>3 min) AF was obtained (test compound dissolved in DMSO in a stock concentration of 10 mMol/L). ICA in a concentration of 100 nmol/L was then tested in combination with either 1 μmol/L flecainide or 3 μmol/L ranolazine using the same protocol as described above in this section.

[3] = system: Isolated, perfused female guinea pig hearts; assay: Effect on AF duration (ACh plus burst pacing) in Langendorff heart; settings: for reduction of AF duration as compared to time matched controls (in words): administered alone, ICA 100 nmol/L, flecainide 1 μmol/L, ranolazine 3 μmol/L; for Log AF duration: log(10)-transformed, means±SEM, 1 μmol/L ACh, burst pacing 50 Hz, ICA 0.1 μM, flecainide 1 μM, ranolazine 3 μM
Description: as §1, §2

[4] = concentration 3.0 μM in perfusate

SMILES | cardioversion obtained (animals converted out of animals) ([1]; concentration 1.0 μM in perfusate) | cardioversion obtained (animals converted out of animals) [1, 4] | No cardioversion (animals out of animals) ([1]; stepwise 0.1 to 30.0 μM, 30 min each) | prolongation of aERP from baseline values as compared to time matched controls (in words) [2] | percentual prolongation of aERP after 30 minutes of perfusion as compared to the baseline ([2]; pacing frequency 5 Hz) [%] | percentual prolongation of aERP after 30 minutes of perfusion as compared to the baseline ([2]; pacing frequency 10 Hz) [%] | reduction of AF duration as compared to time matched controls (in words) [3] | Log AF duration [3] | cardioversion obtained (animals converted out of animals) ([1]; concentration 10.0 μM in perfusate) | cardioversion obtained (animals converted out of animals) ([1]; concentration 0.3 μM in perfusate)
COc1ccccc1OCC(O)CN1CCN(CC(=O)Nc2c(C)cccc2C)CC1 (stereo not drawn) [Ranolazine, N-(2,6-dimethylphenyl)-2-[4-[2-hydroxy-3-(2-methoxyphenoxy)-propyl]piperazin-1-yl]acetamide] | 1/5 | 2/5 | 2/5 | no significant prolongation of aERP; also recorded: sub-effective | 114.81 ± 12.7 | 114.4 ± 9.9 | no significant reduction of AF duration; also recorded: sub-effective | 1.11 ± 0.23 | – | –
O=C(NCC1CCCCN1)c1cc(OCC(F)(F)F)ccc1OCC(F)(F)F (stereo not drawn) [Flecainide, N-(piperidin-2-ylmethyl)-2,5-bis(2,2,2-trifluoroethoxy)benzamide] | – | 2/4 | – | no significant prolongation of aERP; also recorded: sub-effective | 123.0 ± 2.6 | 124.6 ± 8.0 | no significant reduction of AF duration; also recorded: sub-effective | 1.27 ± 0.14 | 2/4 | –
c1ccc(Nc2nc(-c3ccccn3)cs2)nc1 [ICA, N-(pyridin-2-yl)-4-(pyridin-2-yl)thiazol-2-amine] | – | – | – | no significant prolongation of aERP; also recorded: does not cause any significant effects | 112.5 ± 3.8 | 119.3 ± 10.6 | no significant reduction of AF duration; also recorded: does not cause any significant effects | 1.29 ± 0.15 | – | 4/4
